In patent publication EP1095025B1, “BENZIMIDAZOLES, PRODUCTION THEREOF AND USE THEREOF AS MEDICAMENTS” (Boehringer Ingelheim Pharma KG, priority 1998, dated 2000):
Counter-ions that a name gives are not always drawn.

Tested on: humanem Citrat-Plasma
Test: aPTT time prolongation in plasma (Biomatic B10 coagulometer)
Format: biochemical
Conditions: effective substance concentration, from a dose-response curve, at which the aPTT time is doubled versus control; human citrate plasma, 37°C

Structure (SMILES) | aPTT-Zeit (ED200 in µM) [µM]
Cn1c(CNc2ccc(C(=N)N)cc2)nc2cc(C3(C(=NOCC(=O)O)c4ccccn4)CC3)ccc21 (mixture of isomers) [B, (E/Z)-2-(4-Amidinophenylaminomethyl)-1-methyl-5-[1-[(pyridin-2-yl)-(carboxymethyloxyimino)methylen]cyclopropyl]-benzimidazol-hydrochlorid] | 0.42
Cl.Cn1c(CNc2ccc(C(=N)N)cc2)nc2cc(C3(C(=O)N4CCCC4)CC3)ccc21 [A, 2-(4-Amidinophenylaminomethyl)-1-methyl-5-[1-(pyrrolidin-1-yl-carbonyl)cyclopropyl]-benzimidazol-hydrochlorid] | 0.12
Cl.Cn1c(CNc2ccc(C(=N)N)cc2)nc2cc(C(C)(NCCC(=O)O)C(=O)N3CCCC3)ccc21 (stereo not shown) [C, 2-(4-Amidinophenylaminomethyl)-1-methyl-5-[1-(2-carboxyethylamino)-1-(pyrrolidin-1-yl-carbonyl)-ethyl]-benzimidazol-hydrochlorid] | 0.31
Cl.Cn1c(CNc2ccc(C(=N)N)cc2)nc2cc(C3(C(=O)N4CCCC4CCC(=O)O)CC3)ccc21 (stereo not shown) [D, 2-(4-Amidinophenylaminomethyl)-1-methyl-5-[1-[2-(2-carboxyethyl)-pyrrolidin-1-yl-carbonyl]cyclopropyl]-benzimidazol-hydrochlorid] | 0.29
Cc1nc(CCC(=O)O)n(Cc2ccc3c(c2)nc(CNc2ccc(C(=N)N)cc2)n3C)c1C.Cl [E, 2-(4-Amidinophenylaminomethyl)-1-methyl-5-[2-(2-carboxyethyl)-4,5-dimethyl-imidazol-1-yl-methyl]-benzimidazol-hydrochlorid] | 0.29
Cl.Cn1c(CNc2ccc(C(=N)N)cc2)nc2cc(C(C)(NCC(=O)O)C(=O)N3CCCC3)ccc21 (stereo not shown) [F, 2-(4-Amidinophenylaminomethyl)-1-methyl-5-[1-(carboxymethylamino)-1-(pyrrolidin-1-yl-carbonyl)-ethyl]-benzimidazol-hydrochlorid] | 0.20
CN(CC(C)(C(=O)N1CCCC1)c1ccc2c(c1)nc(CNc1ccc(C(=N)N)cc1)n2C)C(=O)CC(=O)O (stereo not shown) [G, 2-(4-Amidinophenylaminomethyl)-1-methyl-5-[1-(N-methylcarboxymethylcarbonylaminomethyl)-1-methyl-1-(pyrrolidin-1-yl-carbonyl)-ethyl]-benzimidazol-dihydrochlorid] | 0.17
